Measurements reported in patent EP1105728B1, “MODULATING MULTIPLE LINEAGE KINASE PROTEINS” (CEPHALON, INC., priority 1998, dated 2000).
pIC50: −log10 of the molar value. “And” between values parts separate entries of the source, which are not always exact repeats. Equal entries are not always repeated. Marks after values point to notes of the source that are not given here.

What was measured:
SNB motor neurons = experiment: Developmentally regulated motor neuronal death in the neonatal rat (SNB); format: in vivo
Procedure: Untimed pregnant Sprague-Dawley rats were obtained from Harlan Laboratories (Indianapolis, IN). Female rat pups were injected daily, subcutaneously (SC), over the target perineal muscles, with Compound III-3 in 5% Solutol ™ HS 15 or vehicle along starting on the day of birth (P1) and continuing for 5 days (P5). On P10 or P60, pups were decapitated, blood was collected in heparinized capillary tubes, and the region of the spinal cord containing the sexually dimorphic spinal nucleus of the bulbocavemosus (SNB) and the perineal area containing the bulbocavernosus (BC) and levator ani (LA) muscles were dissected after perfusion of the animals with saline/formalin. The region of the spinal cord containing the SNB was postfixed, embedded in Paraplast, sectioned at 10µm, and stained with Cresylecht violet (Nordeen, et al., Science, 1985, 229, 671-673, which is incorporated herein by reference in its entirety). Motor neurons were counted at X500 in serial sections from the lumbar 5 to the sacral 1 region of the spinal cord as described previously (Nordeen, et al., supra). The microscopic enumeration was made on coded sections by an observer blinded to the treatment groups. Motor neuron counts were corrected for cell size and section thickness (Konisgsmark, Contemporary Research Methods in Neuroanatomy, Nauta & Ebbesson, Eds., 1970, Springer-Verlag, New York, pp.315-340, which is incorporated herein by reference in its entirety) and statistical analysis was by one-way analysis ofvariance (ANOVA). Perineal musculature was postfixed, decalcified, embedded in Paraplast, sectioned at I 0µm and stained with Milligan's Trichrome. […] The outline of muscle tissue was traced from alternate sections using a projection microscope (62.5), and the cross-sectional area was measured using a digitizing pad and a computer-based morphometry system (Sigmascan, Jandel Scientific). Muscle volume was calculated by talking the total cross-sectional area and multiplying it by the section thickness, and corrected for the percentage of the structure sampled.

[1] = test system: hypoglossal motor neurons; experiment: Axotomy-induced motor neuronal dedifferentiation in the adult rat (hypoglossal nerve); format: in vivo; details: for ChAT-Positive Motor Neurons Average/Group / ChAT-Positive Motor Neurons Experimental/Control / ChAT-Positive Motor Neurons %: 7 days; for ChAT-Positive Motor Neurons Experimental/Control: counts ipsilateral/contralateral; for ChAT-Positive Motor Neurons Experimental/Control / ChAT-Positive Motor Neurons %: per animal
Procedure: The left hypoglossal nerve was transected in the neck of adult female Sprague-Dawley rats (120-180 g) under Neumbutol anesthesia, and 50 µl of Compound III-3 or its vehicle (5% Solutol™ HS 15) were applied to a piece of Gelfoam ™ (AJ Buck, Owings Mills, MD), then wrapped around the proximal end of the transected nerve. After 7 days, the animals were anesthetized and perfused with 4% paraformaldehyde in Sorenson's buffer, 0.07 M phosphate, pH 7.2. The brain stem was removed and 40- µm-thick serial coronal sections were cut on a cryostat (Chiu, et al., NeuroReport, 1994, 5, 693-696, which is incorporated herein by reference in its entirety). Every fifth section was processed for ChAT immunohistochemistry as previously described (Chiu, et al., J. Comp. Neurol., 1993, 328, 351-363, which is incorporated herein by reference in its entirety) using a 1:350 dilution of an anti-ChAT monoclonal antibody obtained from Chemicon. Cells that stained clearly above background were counted in stained sections; the number of enumerated cells was expressed as the ratio of the number of ChAT-immunoreactive cells on the axotomized side of the hypoglossal nucleus versus the number of immunoreactive cells on the control (uninjured) side.

MKK4 = experiment: MPTP model: phosphorylated MKK4 in the substantia nigra (immunoblot, ELISA); format: in vivo, mice; details: pretreatment; Compound III-3 1 mg/kg (Fig. 22c)
Procedure: MPTP was administered at a dose (40 mg/kg) that produces loss of striatal dopaminergic terminals and cell bodies in the substantia nigra. Tyrosine hydroxylase was used as a marker for dopamenergic nerve terminals in the substantia nigra. […] Since Compound III-3 is a known inhibitor of MLK3, activation of a downstream substrate of MLK3 was measured in MPTP- treated mice. Levels of phosphorylated MKK4 were measured using a phospho-MKK4 specific antibody (New England Biolabs, Beverly, MA) that recognizes the monophosphorylated form of MKK4 by either immunoblot (Fig. 22b) or ELISA (Fig. 22c). MPTP administration elevated levels of phosphorylated MKK4 in the substantia nigra by up to 5 fold over control levels (Fig. 22b). Peak elevations occurred 4 hrs after administration ofMPTP and coincided with peak CNS levels of MPP^+.

IL-2 = experiment: Induction of IL-2 in Jurkat cells by anti CD3 and anti CD28 antibodies (ELISA); format: cell-based; details: Homo sapiens
Procedure: Jurkat cells were grown in RPMI 1640 medium supplemented with 10% fetal bovine serum. TNF-α was from Promega and anti CD3 and anti CD28 antibodies were from Pharmigen. Jurkat experiments were done in 200 µl in a 96 well plate. IL-2 was measured with an ELISA kit purchased from Boehringer Mannheim. The antibodies to CD3 and CD28 were allowed to bind to the plastic of the 96 well plate (18 hr in PBS) prior to addition of the Jurkat Cells. Cells were treated with compounds 1 hr prior to adding to the antibody coated plate. Antibodies to CD3 and CD28 were used to activate the T cell receptor and induce IL-2. I1-2 was released from the Jurkat cells between 6 hr and 24 hr after initiation of induction (Fig. 23A). No IL-2 was made constitutively (Fig. 23A CNT). The effect of Compound III-3 (1 hr treatment with Compound III-3 prior to induction) on IL-2 induction was next assessed (Fig. 23B). A Compound III-3 concentration of 500 nM inhibited IL-2 induction by greater than 80% (Fig. 23B).

trkA tyrosine kinase = trkA tyrosine kinase (Homo sapiens, UniProt P04629); details: Maroney et al.; Kaneko et al.; cited from earlier work
Chain of trkA tyrosine kinase (P04629 33-796): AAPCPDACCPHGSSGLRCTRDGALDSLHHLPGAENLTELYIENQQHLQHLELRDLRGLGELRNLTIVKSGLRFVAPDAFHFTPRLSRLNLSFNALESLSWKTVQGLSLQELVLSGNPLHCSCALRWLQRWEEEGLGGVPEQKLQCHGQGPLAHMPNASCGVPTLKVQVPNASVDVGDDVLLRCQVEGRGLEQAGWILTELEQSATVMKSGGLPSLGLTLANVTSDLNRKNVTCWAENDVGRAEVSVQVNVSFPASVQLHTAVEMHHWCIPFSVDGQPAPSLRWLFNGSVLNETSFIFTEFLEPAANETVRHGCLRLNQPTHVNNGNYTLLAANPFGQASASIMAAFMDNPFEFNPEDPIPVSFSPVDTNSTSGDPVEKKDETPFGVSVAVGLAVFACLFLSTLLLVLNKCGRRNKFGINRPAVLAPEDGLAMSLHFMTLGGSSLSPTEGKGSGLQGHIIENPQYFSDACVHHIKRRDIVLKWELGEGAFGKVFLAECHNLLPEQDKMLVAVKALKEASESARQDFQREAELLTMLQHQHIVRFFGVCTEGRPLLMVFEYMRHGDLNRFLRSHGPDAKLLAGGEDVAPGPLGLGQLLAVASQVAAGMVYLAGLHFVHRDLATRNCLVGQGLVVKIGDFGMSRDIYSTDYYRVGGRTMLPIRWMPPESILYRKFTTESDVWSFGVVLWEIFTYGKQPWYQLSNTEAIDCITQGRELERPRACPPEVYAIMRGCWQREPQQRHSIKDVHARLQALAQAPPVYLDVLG

## CCSCc1ccc2c(c1)c1c3c(c4c5cc(CSCC)ccc5n5c4c1n2C1CC(O)(C(=O)OC)C5(C)O1)CNC3=O (stereo not drawn) [III-3]
SNB motor neurons; 0.5 and 1 mg/kg per day PN 1-5, sacrifice at PN60
  rescued motor neurons identifiable morphologically 55 days after the last treatment: 100%
SNB motor neurons; 0.5 and 1 mg/kg per day sc, PN 1-5, female rats
  enhancement in motor-neuronal survival: 70%
SNB motor neurons; SNB model
  weight loss, mortality, gross tissue damage: no associated weight loss, mortality, or gross tissue damage
[1]; 3.6 µg in gel foam
  ChAT-Positive Motor Neurons Average/Group: 12.84*
  ChAT-Positive Motor Neurons Experimental/Control: 55/420 and 72/572
  ChAT-Positive Motor Neurons %: 13.10% and 12.59%
[1]; 25 µg in gel foam
  ChAT-Positive Motor Neurons Average/Group: 19.01*
  ChAT-Positive Motor Neurons Experimental/Control: 95/597 and 142/642
  ChAT-Positive Motor Neurons %: 15.91% and 22.12%
[1]; 50 µg in gel foam
  ChAT-Positive Motor Neurons Average/Group: 41.34*
  ChAT-Positive Motor Neurons Experimental/Control: 278/637 and 188/484
  ChAT-Positive Motor Neurons %: 43.85% and 38.84%
[1]; 100 µg in gel foam
  ChAT-Positive Motor Neurons Average/Group: 32.61*
  ChAT-Positive Motor Neurons Experimental/Control: 465/920 and 235/784 and 178/770 and 182/679
  ChAT-Positive Motor Neurons %: 50.54% and 29.98% and 23.12% and 26.80%
[1]; 200 µg in gel foam
  ChAT-Positive Motor Neurons Average/Group: 24.96*
  ChAT-Positive Motor Neurons Experimental/Control: 99/461 and 159/559
  ChAT-Positive Motor Neurons %: 21.48% and 28.44%
[1]; any doses tested, hypoglossal axotomy model
  weight loss, mortality, gross tissue damage: no associated weight loss, mortality, or gross tissue damage
[1]; maximally effective dose (50 µg), 7 days postaxotomy
  more ChAT-immunoreactive motor neurons compared to the axotomized, untreated control: 40%
MKK4
  MPTP-mediated MKK4 phosphorylation: partially inhibited
IL-2; Jurkat, 500 nM, 1 hr treatment prior to induction (Fig. 23B)
  inhibition at 0.5 µM: > 80%
IL-2; Jurkat cells (Fig. 23C)
  pIC50: 6.86
trkA tyrosine kinase
  inhibitory activity against trkA tyrosine kinase: did not exhibit inhibitory activity
